The results in this text go back to patent US20070270431A1, “Preventive and/or Therapeutic Medicine for Rheumatoid Arthritis” (Kowa Co., Ltd., priority 2004, published 2007).

The subject of this assay is rats of a collagen-induced arthritis model. In words: Suppression of both-hindlimb edema in rats of a collagen-induced arthritis model. The format is in vivo, rat. To be noted: 30 days after initial sensitization, pyridazinone 30 mg/kg twice daily, methotrexate 0.05 mg/kg once daily. As for the experimental part:
The effect on suppressing edema of both hindlimbs by 2-benzyl-5-(4-chlorophenyl)-6-4-(methylthio)phenyl]-2H-pyridazin-3-one (synthesized through the aforementioned method) and methotrexate were determined both in the cases of combined administration and solo administration through the following procedure. For the experiment-rats of a collagen-induced arthritis model were used. (FDA, CBER, CDER, CDRH: Guidance for industry—Clinical development programs for drugs devices and biological products for the treatment of rheumatoid arthritis (RA)-(1999)). Lewis female rats (LFW/Crj) (obtained from Charles River Laboratories Japan, Inc.) were employed as test animals.
For each 8-week-old LEW/Crj rat, the volume of a portion from the ankle to the toe tip of each hindlimb was measured by means of a plethysmometer for small animals (TK-101CMP, product of Unicom) and the total volume was employed as a volume of the hindlimbs (hereinafter referred to as both-hindlimb volume) at the start of the test (hereinafter referred to as Pre value). By use of the Pre value as an index, the rats were divided into groups by one-parameter-based block randomization so that the values in the groups were averaged out.
The collagen emulsion for sensitization employed for inducing arthritis in rats was prepared by homogenizing a 0.3% Type II collagen liquid (product of Collagen Research Center), adjuvant peptide (product of Peptide Institute, Inc.), and adjuvant incomplete Freund (product of DIFCO) by means of a Handy Micro Homogenizer (product of Microtec Nition) under cooling with ice. The thus-prepared emulsion was intracutaneously injected to 10 sites in the back of each rat at 0.1 mL/site, to thereby initially sensitize the rat. Seven days after initial sensitization the same emulsion (0.12 mL) was intracutaneously injected to the tail head of the rat for booster sensitization
Administration of medicines was carried out on the day after initial sensitizaton to day 29. To the 2-benzyl-5-(4-chlorophenyl)-68 4-(methylthio)phenyl]-2H-pyridazin-3-one solo administration group, the medicine was orally administered twice; in the morning (9:00 to 11:00) and in the evening (15:30 to 17:30) at a dose of 30 mg/kg. […]
Thirty days after initial sensitization, both-hindlimb volume was measured. Volume of both-hindlimb edema was calculated by subtracting the Pre value from the thus-measured value.
Table 1 and FIG. 1 show both-hindlimb edema volume of rats which was measured 30 days after initial sensitization where the rats were divided into the 2-benzyl-5-(4-chlorophenyl)-6-[4-(methylthio)phenyl]-2H-pyridazin-3-one solo administration group, the methotrexate solo administration group, and the combined administration group. […]

Each structure is given as a SMILES string.

Regarding `CSc1ccc(-c2nn(Cc3ccccc3)c(=O)cc2-c2ccc(Cl)cc2)cc1` [2-benzyl-5-(4-chlorophenyl)-6-[4-(methylthio)phenyl]-2H-pyridazin-3-one], under “oral administration from day after sensitization to day 29, average of seven rats ± standard error”, the Both-hindlimb edema volume was determined as 1.04 ± 0.32 mL. Under “oral”, the “Edema suppression effect (in words)” value is given as “did not result in potent edema suppression effects” and the “Relative index (average edema volume of administration group / control group)” value is reported as 0.66. Besides, the Percent edema suppression (vs control group, oral) is listed as 34%.
